Source: US8530507B2, “Use of levo-ornidazole in the preparation of anti-anaerobic bacteria infection drugs” (priority 2005, dated 2013)

Columns and labels:
[1] = In vivo pharmacokinetics in Beagle dogs
Description: The clinical dose of ornidazole is 500 mg for human. By calculating, based on body surface area, the pharmacokinetic experimental dose in Beagle dogs was 13 mg/kg in vivo. Six adult beagle dogs (half males and half females, body weight of 9˜11.5 kg) were randomly divided into three groups. According to crossover design, intravenous injection of L-, D-, and racemic ornidazole were administered in turn to each dog every other week (with one week washout period in between). 2 ml of blood was collected from the vein located at the forelimb of the dogs before drug administration and 0.083, 0.5, 1.0, 2.0, 4.0, 6.0, 8.0, 12.0, 16.0, 24.0 hours after drug administration, which was then placed in the heparinized tube, followed by centrifugation to obtain the plasma. Plasma concentration of drug was determined by HPLC. Pharmacokinetics parameters were estimated using the non-compartmental models. The corresponding pharmacokinetics parameters were obtained by BAPP2.0 using the data of plasma concentration of blood with time obtained above.

mice [2] = experiment: Hypnotic effect of intravenous injection in mice (righting reflex); format: in vivo; details: mice, within 30 minutes
Description: White mice, half males and half females, fasted for eight hours. The disappearance of righting reflex in mice was observed. The number of animals who lost their righting reflex was recorded in 30 minutes after drug administration.

mice [3] = experiment: Effect on the hypnotic effect induced by sodium thiopental in mice; details: 40 mg/kg sodium thiopental i.p. 30 minutes later
Description: The same volume of 0.9% sodium chloride injection containing propylene glycol was administered in the vehicle control group. 30 minute after drug administration, 40 mg/kg of sodium thiopental was administered to mice by intraperitoneal injection. The time for the loss of righting reflex and the time for the recovery were recorded. The injection volume was 0.2 ml/10 g, the administration rate was 0.2 ml/10 sec.

Beagle dogs = details: dog, in vivo, iv, 200 mg/kg
Excerpt: 2. Toxicity Test in Beagle Dogs (Non-Rodent) After Intravenous Administration of L-ornidazole for Two Weeks
Beagle dogs, 4 dogs in each group with half females and half males, were divided into L-, D-, and racemic ornidazole groups.

mice [4] = experiment: Effects on spontaneous activities in mice; format: in vivo; details: for spontaneous activity compared with the vehicle control group: recorded at 0.5, 1, 2, 3 and 4 hours
Description: Chlorpromazine was administered at dose of […] in the positive control group, and the same volume of propylene glycol containing 0.9% sodium chloride injection was administered in the vehicle control group. Spontaneous activity was recorded at 0.5, 1, 2, 3 and 4 hours after drug administration. The injection volume was 0.2 ml/10 g and the administration rate was 0.2 ml/10 sec.

mice [5] = experiment: Effect on the coordination of balancing in mice; format: in vivo; details: intravenous injection
Description: Experiments were conducted in 9 administration groups, L-, D- and racemic ornidazole were administered to them at doses of 40, 80 and 160 mg/kg. Positive control group received chlorpromazine at a dose of 3 mg/kg.

[6] = beagle dogs, individual intravenous dose 13 mg/kg, plasma

## Cc1ncc([N+](=O)[O-])n1C[C@@H](O)CCl [D-ornidazole]
[1]; [6]
  AUC0-t (area under curve): 66570 ± 10510 ng·h/mL
  Cl (clearance): 1.59 ± 0.28 L/h
  MRT (mean retention time of drugs): 8.74 ± 3.30 h
  Vβ (elimination volume of distribution): 13.59 ± 4.99 L
[1]; dog, in vivo, iv
  in vivo transformation of enantiomers between L- and D-ornidazole: not occurred
[1]; dog, in vivo, iv, 13 mg/kg
  t1/2 (half life): 6.06 ± 2.29 h
Mice [2]; individual dose of 160 mg/kg intravenous
  number of mice with loss in righting reflex: 10 mice
Mice [2]; individual dose of 40 or 80 mg/kg intravenous
  loss in righting reflex: No loss in righting reflex
Mice [3]; 40 mg/kg intravenous
  duration of sleeping induced by sodium thiopental, compared with the vehicle control group: significantly extended
  sleep latency induced by sodium thiopental, compared with the vehicle control group: significantly reduced
Mice [3]; 80 mg/kg intravenous
  duration of sleeping induced by sodium thiopental, compared with the vehicle control group: significantly extended
  sleep latency induced by sodium thiopental, compared with the vehicle control group: significantly reduced
Beagle dogs
  food intake and body weight: significantly inhibited
  histological examination of organs: significant pathological changes were not observed
  manifestations (toxicity and side effects): drooling, vomiting, myasthenia of limbs, astasia, hyperspasmia
  number of Purkinje cells in cerebellum (histological examination): significantly reduced
Mice [4]; 40 mg/kg intravenous
  recovery of spontaneous activity: gradually become normal after 3 hours
  spontaneous activity compared with the vehicle control group: reduced significantly at 0.5, 1 and 2 hours
Mice [4]; 80 mg/kg intravenous
  recovery of spontaneous activity: not recovered in 4 hours
  spontaneous activity compared with the vehicle control group: reduced significantly at 0.5, 1, 2, 3 and 4 hours
Mice [4]; 160 mg/kg intravenous
  recovery of spontaneous activity: not recovered in 4 hours
  spontaneous activity compared with the vehicle control group: reduced significantly at 0.5, 1, 2, 3 and 4 hours
Mice [5]; 160 mg/kg
  effect on the coordination and balance (number of falling animals): significant effect
Mice [5]; doses of 40 and 80 mg/kg
  effect on the coordination and balance, compared with the vehicle control group: no significant effect
